Experimental data published in article PMC7712428, “Dimethoate Induces DNA Damage and Mitochondrial Dysfunction Triggering Apoptosis in Rat Bone-Marrow and Peripheral Blood Cells” (Toxics, 2020).
Like-named read-outs stand apart in the source and are kept apart here. Marks after values point to notes of the source that are not given here.

What was measured:
[1] = system: rat WBCs; conditions: Mean ± SD, 40 mg/kgbw; for Sub-G1: cells percentage (apoptosis); for G1 / G2/M / S: cells percentage
Text: (§1) The experimental animals—Rattus norvegicus (Wistar strain; 8–10 weeks old; 120 ± 20 gm; males only) were acquired from Indian Institute of Integrative Medicine (IIIM-CSIR) (Jammu, India), quarantined, acclimatized and sacrificed as per standard practice conforming to the University Ethical Regulations. After acclimatization, rats were divided into five groups by stratified randomization with five animals per group. […] Distilled water was used to prepare dosing solutions of test agent and injected via intraperitoneal (i.p.) injection. At 24, 48 and 72 h post-dosing, 5 rats per duration were sacrificed and necessary tissues were isolated for different cytogenetic and molecular parameters. For CA assessment, separate experimental lot was used due to colchicine treatment.
(§2) WBCs were isolated by following the protocol of Lone et al.. Blood was collected in 0.1% EDTA from retro-orbital plexus of rat, followed by incubation for 30 min. 500 µL of blood was then added to a centrifuge tube with 1 mL FACS lysing solution. The blood was incubated for 10 min and centrifuged (2000 rpm, 10 min) at 25 °C. After discarding the supernatant, pellet was washed in 1mL FACS lysing solution followed by centrifuging at 2000 rpm for 5 min. Repeated this step twice and then pellet was put in 500 µL of PBS, leaving only WBCs.
Post completion of exposures, PBS was used to wash the harvested cells and fixed in cold ethanol (70%) for 48 h. Cells were digested by RNase (400 μg/mL) at 37 °C for 45 min. After incubating the cells with Propidium iodide (10 μg/mL), examined instantly on flow cytometer FACSAriaII (Becton Dickinson, San Jose, CA, USA). A total of 10,000 events were obtained for cell cycle analysis.

[2] = system: bone marrow cells; conditions: for P/N: PCE:NCE ratio
Text: as §1
MN assay followed the protocol of Schmid. Immediately after sacrificing the animals, both femurs were removed from the pelvic bone and freed from the extra muscles. After cutting the epiphyses, the bone marrow was collected by gentle flushing with 2 mL FBS. Centrifuge cell suspension at 1000 rpm for 5 min and discarded the supernatant. The pellets obtained were saved in 50 μL fresh FBS. Re-suspended the cell pellet and a small drop was spread onto clean grease-free glass slides and dried in air. By using absolute methanol, the smears were fixed for 10min following the staining by May-Grunwald / buffered Giemsa at pH 6.8. Micronuclei and the ratio of polychromatic erythrocyte (PCE) to normochromatic erythrocyte (NCE) i.e., P/N were scored. The micronucleus frequencies (indicated as mean percent micronucleated cells) were examined by considering the micronucleated PCEs number (MNPCEs) from at least 2000 PCEs/animal. Cytotoxic effect of test compound was evaluated by calculating the PCE:NCE ratio in at least 1000 erythrocytes per animal. For final observation, DPX mounted slides were photographed at 100× with oil immersion (Olympus U—PMTV microscope mounted with optical zoom camera).

[3] = system: Lymphocytes; conditions: initial exposure time
Text: as §1, §2
Protocol of Majeed and colleagues was employed for flow cytometric measurements of change in Ψm. […] Leukocytes were identified via forward and side scatter.

[4] = cited from earlier work

## O=P1(N(CCCl)CCCl)NCCCO1 (centres unmarked) [Cyclophosphamide, reference compound]
[1]; 24 h
  Sub-G1: 91.3 ± 4.12 ***^,a
  G1: 6.06 ± 1.26
  G2/M: 2.53 ± 0.06
  S: 0.2 ± 0.01
[1]; 48 h
  Sub-G1: 76.3 ± 4.16 ***^,a
  G1: 21.33 ± 2.41
  G2/M: 1.3 ± 0.2
  S: 0.06 ± 0.01
[1]; 72 h
  Sub-G1: 98.4 ± 6.01 ***^,a
  G1: 0.87 ± 0.03
  G2/M: 0.4 ± 0.02
  S: 0.33 ± 0.11
[2]; 40 mg/kgbw i.p., 24 h
  MNPCE (Mean% ± SD): 10.6 ± 0.81 %
  P/N: 0.604 *
[2]; 40 mg/kgbw i.p., 48 h
  MNPCE (Mean% ± SD): 8.2 ± 0.66 %
  P/N: 0.529 **
[2]; 40 mg/kgbw i.p., 72 h
  MNPCE (Mean% ± SD): 7.1 ± 0.43 %
  P/N: 0.581 **

## CNC(=O)CSP(=S)(OC)OC [DM, 0,0- Dimethyl S-(N-methylcarbamoylmethyl) phosphorodithiote]
[3]; lymphocytes
  maximum MMP loss: greater than 30%
[3]; range over increased DM doses
  MMP loss in lymphocytes: 6.3–32.3%
[2]; 20 mg/kgbw i.p., 24 h
  MNPCE (Mean% ± SD): 4.4 ± 0.51 %
  P/N: 0.740 *
[2]; 20 mg/kgbw i.p., 48 h
  MNPCE (Mean% ± SD): 4.0 ± 0.44 %
  P/N: 0.736 *
[2]; 20 mg/kgbw i.p., 72 h
  MNPCE (Mean% ± SD): 3.6 ± 0.50 %
  P/N: 0.731 *
[2]; 40 mg/kgbw i.p., 24 h
  MNPCE (Mean% ± SD): 5.2 ± 0.58 %
  P/N: 0.728 *
[2]; 40 mg/kgbw i.p., 48 h
  MNPCE (Mean% ± SD): 4.8 ± 0.86 %
  P/N: 0.715 *
[2]; 40 mg/kgbw i.p., 72 h
  MNPCE (Mean% ± SD): 4.1 ± 0.73 %
[2]; 60 mg/kgbw i.p., 24 h
  MNPCE (Mean% ± SD): 5.6 ± 0.7%
  P/N: 0.725 *
[2]; 60 mg/kgbw i.p., 48 h
  MNPCE (Mean% ± SD): 4.9 ± 0.74 %
  P/N: 0.721 *
[2]; 60 mg/kgbw i.p., 72 h
  MNPCE (Mean% ± SD): 3.8 ± 0.80 %
  P/N: 0.718 *
[4]
  hazard label: Class II, moderately hazardous
